From patent US20190388349A1, “NON-TOXIC VEHICLE TO SOLUBILIZE, DELIVER, AND OBTAIN BIOLOGICAL ACTIVITY OF STEROID HORMONES AT CELL, TISSUE, AND ORGAN TARGETS, IN VITRO AND IN VIVO” (Government of the United States as Represented by the …, priority 2017, published 2019)

Tests used:
[1] = tested on: 293T cells; experiment: Biological function (phenotype, mobile cells) in 293T cells; type: cell-based, human; settings: for mobile cells / mobile elements / processes (photograph): vehicle PEG 300 with LIPOFECTAMINE, 25 μM β-AED, 5 nM E2
Protocol: A non-toxic vehicle for administration of androstene hormones according to embodiments of the present invention was prepared from a first solution and a second solution. The first solution, comprising liposomal formulation, was placed in PEG 300 to a concentration of 5% and heated in a sonicating water bath to about 45° C. The second solution, comprising a selected hormone (one or more of 5Δ-androsten-3β, 17α-diol, 5Δ-androsten-3β, 17β-diol, or 5Δ-androsten-3β,7β,17β-triol), was placed in PEG 300 and heated in a sonicating water bath to about 45° C. The first and second solutions were then combine and stirred until dissolved.
Biological function was tested in 293T cells, which is a human embryonic cell line transformed with Large T antigen […] SV40. This hypotriploid (polyploid) cell line is particularly useful in such transformation studies and has very distinct phenotypes when grown. All androstene hormone treatment applications were at concentrations of 25 μM.

[2] = tested on: MCF-7 breast cancer cells; experiment: Cell death and cell growth in MCF-7 breast cancer cell cultures; type: cell-based; settings: 5 nM E2; for cell growth / cell density (microscopic photograph): MCF-7 grown for 5 days, 25 μM androstene hormone, PEG 300 with 5% LIPOFECTAMINE
Protocol: (§1) Hormone dependent, noninvasive, epithelial phenotype (ER/PR positive MCF-7 breast cancer cells) and hormone independent, invasive, mesenchymal phenotype (ER/PR negative MDA-MB-231 breast cancer cell) cell suspensions were acquired and prepared in complete medium (DMEM/F12, 10% FBS, 1% penicillin/streptomycin (Gibco)). Cellular concentration was adjusted to 2×10^5 cells/mL.
(§2) Androstene hormone solutions according to embodiments of the present invention were prepared from a first solution and a second solution. For the first solution, 3.0 mg of β-AED or β-AET was added to warm PEG 300 to prepare 50 mM stock. For the second solution, 10 μL of LIPOFECTAMINE (3:1 DOSPA: DOPE) was introduced to 100 μL of PEG 300, mixed, and incubated in a water bath at 42° C. for 30 min. The first and second solutions were then mixed in a sonicator water bath at 42° C. for 1 hr. The final concentration was 50 mM β-AED (or AET, as used).
(§3) A β-estradiol solution was also prepared by adding 2.7 mg of β-estradiol to 200 μL warmed PEG 300 with LIPOFECTAMINE and then further diluted 1:1000 with PEG-300. The final concentration was 50 μM.
A diluted β-AED (or β-AET) solution was prepared with complete medium at a final concentration of 50 μM (1:1000 dilute of 50 mM). Likewise, a diluted β-E2 solution was prepared with complete medium at a final concentration of 10 nM (1:5000 dilute of 50 μM).
Using a 24-well plate, mixtures of 0.5 mL of cells per well with 0.5 mL of medium diluted hormone vehicle. Cell cultures were maintained at 90% humidity, 7% CO2, and 37° C.

[3] = tested on: MDA-MB-231 breast cancer cell; experiment: Cell death in MDA-MB-231 breast cancer cell cultures; type: cell-based; settings: 25 μM β-AED, 25 μM β-AET, 5 nM E2; PEG 300 with LIPOFECTAMINE vehicle
Protocol: as §1, §2, §3
A diluted β-AED (or β-AET) solution was prepared with complete medium at a final concentration of 50 μM (1:1000 dilute of 50 mM). Likewise, a diluted β-E2 solution was prepared with complete medium at a final concentration of 10 nM (1:5000 dilute of 50 μM). […]

[4] = vehicle PEG 300 only, androstene hormone 25 μM

| SMILES | cell islands (photograph) [1, 4] | mobile cells / cell processes (photograph) [1, 4] | mobile cells / mobile elements / processes (photograph) [1] | cell growth / cell density (microscopic photograph) [2] | MDA-MB-231 Cell Death Amount [3] | MCF7 Cell Death Amount ([2]; 25 μM β-AED, 25 μM β-AET, PEG 300 with LIPOFECTAMINE vehicle) |
| --- | --- | --- | --- | --- | --- | --- |
| C[C@]12CC[C@H]3[C@@H](CC=C4C[C@@H](O)CC[C@@]43C)[C@@H]1CC[C@@H]2O [β-AED, androst-5-ene-3β,17β-diol] | larger | significant reduction in mobile cells | drastic decrease in, or morphological change, in mobile elements | areas of decreased density | – | – |
| C[C@]12CC[C@@H]3c4ccc(O)cc4CC[C@H]3[C@@H]1CC[C@@H]2O [E2, 17β-estradiol] | – | many more cell processes | many large islands with mobile processes, small islands with mobile process, and mobile cells forming interconnections with other elements | thick and similar to the cell growth of FIGS. 14 and 16 | Not observed | Not observed |
| C[C@]12CC[C@H]3[C@@H]([C@@H](O)C=C4C[C@@H](O)CC[C@@]43C)[C@@H]1CC[C@@H]2O [β-AET, 5-androstene-3β,7β,17β-triol] | – | – | – | thick and similar to the cell growth of FIG. 14 | – | – |
